Patent US20130072470A1 (ABBVIE INC., priority 2011, published 2013)

molecular target: T1, Jak3 enzyme (aa 811-1103) (Homo sapiens, UniProt P52333); experiment: In vitro Jak3 kinase activity measured by time-resolved fluorescence resonance energy transfer (trFRET); format: biochemical; conditions: ATP 0.001 mM
T1 construct: Jak3 enzyme (aa 811-1103); expressed in SF9 cells as a GST fusion; GST; made in house; host or cells: SF9 insect cells
Experimental: In Vitro Jak3 Kinase Activity Measured by Time-Resolved Fluorescence Resonance Energy Transfer (trFRET)
Varying concentrations of inhibitor were added to an assay well containing: Jak3 enzyme (aa 811-1103; expressed in SF9 cells as a GST fusion and purified by glutathione affinity chromatography; 3 nM), peptide substrate (biotin-TYR2, Sequence: Biotin-(Ahx)-AEEEYFFLFA-amide; 2 μM), MOPSO pH 6.5 (50 mM), MgCl2 (10 mM), MnCl2 (2 mM), DTT (2.5 mM), BSA (0.01% w/v), Na3VO4 (0.1 mM) and ATP (0.001 mM). After about 60 min incubation at rt, the reaction was quenched by addition of EDTA (final concentration: 100 mM) and developed by addition of revelation reagents (final approximate concentrations: 30 mM HEPES pH 7.0, 0.06% BSA, 0.006% Tween-20, 0.24 M KF, 80 ng/mL PT66K (europium labeled anti-phosphotyrosine antibody cat #61T66KLB Cisbio, Bedford, Mass.) and 0.8 μg/mL SAXL (Phycolink streptavidin-allophycocyanin acceptor, cat #PJ52S, Prozyme, San Leandro, Calif.). The developed reaction was incubated in the dark either at about 4° C., for about 14 h or for about 60 min at rt, then read via a time-resolved fluorescence detector (Rubystar, BMG) using a 337 nm laser for excitation and emission wavelength of 665 nm. Within the linear range of the assay, the observed signal at 665 nm is directly related to phosphorylated product and used to calculate the IC50 values.

T1 sequence (P52333 811-1103): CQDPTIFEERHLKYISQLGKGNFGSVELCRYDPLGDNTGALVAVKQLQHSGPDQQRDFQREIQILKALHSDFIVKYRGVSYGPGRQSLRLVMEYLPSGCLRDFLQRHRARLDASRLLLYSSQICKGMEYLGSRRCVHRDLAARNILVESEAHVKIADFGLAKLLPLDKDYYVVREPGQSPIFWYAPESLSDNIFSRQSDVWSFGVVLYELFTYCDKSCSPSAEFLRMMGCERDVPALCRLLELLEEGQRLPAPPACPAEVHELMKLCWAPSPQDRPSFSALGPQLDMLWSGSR

With “1-((1R,3S,4R)-3-(3H-imidazo[1,2-a]pyrrolo[2,3-e]pyrazin-8-yl)-4-methylcyclopentyl)methyl)azetidine-3-carbonitrile and 1-(((1S,3S,4R)-3-(3H-imidazo[1,2-a]pyrrolo[2,3-e]pyrazin-8-yl)-4-methylcyclopentyl)methyl)azetidine-3-carbonitrile [Example #7]” as the compound, how does the IC50 read?
The IC50 was greater than 10 µM.

Which IC50 does the source give for `C[C@@H]1CN(C(=O)NCC(F)F)C[C@@H]1c1cnc2cnc3[nH]ccc3n12` [Example 09, (3R,4S)—N-(2,2-difluoroethyl)-3-(3H-imidazo[1,2-a]pyrrolo[2,3-e]pyrazin-8-yl)-4-methylpyrrolidine-1-carboxamide] here?
The IC50 was 1 to 10 µM.

For `Cc1cnc(C(=O)N[C@H]2C[C@@H](C)[C@@H](c3cnc4cnc5[nH]ccc5n34)C2)cn1` [Example #1, N-((1S,3S,4R)-3-(3H-imidazo[1,2-a]pyrrolo[2,3-e]pyrazin-8-yl)-4-methylcyclopentyl)-5-methylpyrazine-2-carboxamide], which IC50 is on record?
Its IC50 is greater than 10 µM.

For `C[C@@H]1C[C@H](NC(=O)c2cccnn2)C[C@@H]1c1cnc2cnc3[nH]ccc3n12` [Example #2, N-((1S,3S,4R)-3-(3H-imidazo[1,2-a]pyrrolo[2,3-e]pyrazin-8-yl)-4-methylcyclopentyl)pyridazine-3-carboxamide], which IC50 is on record?
The IC50 was greater than 10 µM.

Which IC50 does the source give for `C[C@@H]1C[C@H](N(C)C(=O)c2cocn2)C[C@@H]1c1cnc2cnc3[nH]ccc3n12` [Example #3, N-((1S,3S,4R)-3-(3H-imidazo[1,2-a]pyrrolo[2,3-e]pyrazin-8-yl)-4-methylcyclopentyl)-N-methyloxazole-4-carboxamide] here?
Its IC50 is 1 to 10 µM.

Which IC50 does the source give for `C[C@@H]1C[C@H](NCc2cnc(C(F)(F)F)nc2)C[C@@H]1c1cnc2cnc3[nH]ccc3n12` [Example #4, (1S,3S,4R)-3-(3H-imidazo[1,2-a]pyrrolo[2,3-e]pyrazin-8-yl)-4-methyl-N-((2-(trifluoromethyl)pyrimidin-5-yl)methyl)cyclopentylamine] here?
The IC50 was greater than 10 µM.

With `C[C@@H]1C[C@H](N2CCC(C#N)CC2)C[C@@H]1c1cnc2cnc3[nH]ccc3n12` [Example #5, 1-((1S,3S,4R)-3-(3H-imidazo[1,2-a]pyrrolo[2,3-e]pyrazin-8-yl)-4-methylcyclopentyl)piperidine-4-carbonitrile] as the compound, how does the IC50 read?
Its IC50 is greater than 10 µM.

How did the IC50 turn out when `CC[C@@H]1C[C@@H](C(=O)NCC(F)(F)F)C[C@@H]1c1nnc2cnc3[nH]ccc3n12` [Example #6, (1R,3R,4S)-3-ethyl-4-(6H-pyrrolo[2,3-e][1,2,4]triazolo[4,3-a]pyrazin-1-yl)-N-(2,2,2-trifluoroethyl)cyclopentanecarboxamide] was run?
The IC50 was greater than 10 µM.

With `C[C@@H]1C[C@@H](N2CCC(C#N)CC2)C[C@@H]1c1cnc2cnc3[nH]ccc3n12` [Example #8, 1-((1R,3S,4R)-3-(3H-imidazo[1,2-a]pyrrolo[2,3-e]pyrazin-8-yl)-4-methylcyclopentyl)piperidine-4-carbonitrile] as the compound, how does the IC50 read?
Its IC50 is greater than 10 µM.

`C[C@@H]1C[C@H](CCC#N)C[C@@H]1c1nnc2cnc3[nH]ccc3n12` [Example #9, 3-((1S,3R,4S)-3-methyl-4-(6H-pyrrolo[2,3-e][1,2,4]triazolo[4,3-a]pyrazin-1-yl)cyclopentyl)propanenitrile] was tested. Which IC50 did it give?
The IC50 was greater than 10 µM.

For `C[C@@H]1C[C@@H](CCC#N)C[C@@H]1c1nnc2cnc3[nH]ccc3n12` [Example #10, 3-((1R,3R,4S)-3-methyl-4-(6H-pyrrolo[2,3-e][1,2,4]triazolo[4,3-a]pyrazin-1-yl)cyclopentyl)propanenitrile], which IC50 is on record?
Its IC50 is 1 to 10 µM.

Which IC50 does the source give for `C[C@@H]1C[C@@H](CCC#N)C[C@@H]1n1nnc2cnc3[nH]ccc3c21` [Example #11, 3-((1R,3R,4S)-3-methyl-4-(pyrrolo[2,3-b][1,2,3]triazolo[4,5-d]pyridin-1(6H)-yl)cyclopentyl)propanenitrile] here?
Its IC50 is 1 to 10 µM.

With `CC[C@@H]1CN(C(=O)CCCC#N)C[C@@H]1c1cnc2cnc3[nH]ccc3n12` [Example #12] as the compound, how does the IC50 read?
Its IC50 is 1 to 10 µM.

`CC[C@@H]1CN(C(=O)NCCF)C[C@@H]1c1cnc2cnc3[nH]ccc3n12` [Example #13, (3S,4R)-3-ethyl-N-(2-fluoroethyl)-4-(3H-imidazo[1,2-a]pyrrolo[2,3-e]pyrazin-8-yl)pyrrolidine-1-carboxamide] was tested. Which IC50 did it give?
Its IC50 is 1 to 10 µM.

For `CC[C@@H]1CN(C(=O)NCC(F)F)C[C@@H]1c1cnc2cnc3[nH]ccc3n12` [Example #14, (3S,4R)—N-(2,2-difluoroethyl)-3-ethyl-4-(3H-imidazo[1,2-a]pyrrolo[2,3-e]pyrazin-8-yl)pyrrolidine-1-carboxamide], which IC50 is on record?
Its IC50 is 1 to 10 µM.

For `CC[C@@H]1CN(C(=O)CCC(F)(F)F)C[C@@H]1c1cnc2cnc3[nH]ccc3n12` [Example #15, 1-((3S,4R)-3-ethyl-4-(3H-imidazo[1,2-a]pyrrolo[2,3-e]pyrazin-8-yl)pyrrolidin-1-yl)-4,4,4-trifluorobutan-1-one], which IC50 is on record?
Its IC50 is 1 to 10 µM.

How did the IC50 turn out when `CC[C@@H]1CN(C(=O)NCC(C)(F)F)C[C@@H]1c1cnc2cnc3[nH]ccc3n12` [Example #16, (3S,4R)—N-(2,2-difluoropropyl)-3-ethyl-4-(3H-imidazo[1,2-a]pyrrolo[2,3-e]pyrazin-8-yl)pyrrolidine-1-carboxamide] was run?
The IC50 was greater than 10 µM.

Which IC50 does the source give for `CC[C@@H]1CN(C(=O)NC2CCC2)C[C@@H]1c1cnc2cnc3[nH]ccc3n12` [Example #17, (3S,4R)—N-cyclobutyl-3-ethyl-4-(3H-imidazo[1,2-a]pyrrolo[2,3-e]pyrazin-8-yl)pyrrolidine-1-carboxamide] here?
Its IC50 is greater than 10 µM.

With `C[C@@H]1CN(C(=O)NCC(F)(F)F)C[C@@H]1c1cnc2cnc3[nH]ccc3n12` [Example #18, (3S,4R)-3-methyl-4-(3H-imidazo[1,2-a]pyrrolo[2,3-e]pyrazin-8-yl)-N-(2,2,2-trifluoroethyl)pyrrolidine-1-carboxamide] as the compound, how does the IC50 read?
Its IC50 is greater than 10 µM.

Which IC50 does the source give for `C[C@@H]1CN(C(=O)N2CCOCC2)C[C@@H]1c1cnc2cnc3[nH]ccc3n12` [Example #20, ((3R,4S)-3-(3H-imidazo[1,2-a]pyrrolo[2,3-e]pyrazin-8-yl)-4-methylpyrrolidin-1-yl)(morpholino)methanone] here?
Its IC50 is greater than 10 µM.

With `C[C@@H]1CN(C(=O)CC2CC2)C[C@@H]1c1cnc2cnc3[nH]ccc3n12` [Example #21, 1-((3R,4S)-3-(3H-imidazo[1,2-a]pyrrolo[2,3-e]pyrazin-8-yl)-4-methylpyrrolidin-1-yl)-2-cyclopropylethanone] as the compound, how does the IC50 read?
The IC50 was 1 to 10 µM.

How did the IC50 turn out when `CC[C@@H]1C[C@H](CCC#N)C[C@@H]1c1nnc2cnc3[nH]ccc3n12` [Example #22, 3-((1S,3R,4S)-3-ethyl-4-(6H-pyrrolo[2,3-e][1,2,4]triazolo[4,3-a]pyrazin-1-yl)cyclopentyl)propanenitrile] was run?
Its IC50 is 1 to 10 µM.

For `CC[C@@H]1C[C@@H](CCC#N)C[C@@H]1c1nnc2cnc3[nH]ccc3n12` [Example #23, 3-((1R,3R,4S)-3-ethyl-4-(6H-pyrrolo[2,3-e][1,2,4]triazolo[4,3-a]pyrazin-1-yl)cyclopentyl)propanenitrile], which IC50 is on record?
The IC50 was 1 to 10 µM.

For `CC[C@@H]1C[C@H](NC(=O)c2coc(C)n2)C[C@@H]1c1nnc2cnc3[nH]ccc3n12` [Example #24, N-((1S,3R,4S)-3-ethyl-4-(6H-pyrrolo[2,3-e][1,2,4]triazolo[4,3-a]pyrazin-1-yl)cyclopentyl)-2-methyloxazole-4-carboxamide], which IC50 is on record?
Its IC50 is 1 to 10 µM.

same assay, conditions: ATP 0.001 mM, Table B

Which IC50 does the source give for `CC[C@@H]1C[C@H](NC(=O)/C=C/c2ccc(C)o2)C[C@@H]1c1nnc2cnc3[nH]ccc3n12` [compound 25, (E)-N-((1S,3R,4S)-3-ethyl-4-(6H-pyrrolo[2,3-e][1,2,4]triazolo[4,3-a]pyrazin-1-yl)cyclopentyl)-3-(5-methylfuran-2-yl)acrylamide] here?
Its IC50 is 1 to 10 µM.

How did the IC50 turn out when `CC[C@@H]1C[C@H](NC(=O)COc2cc(C)on2)C[C@@H]1c1nnc2cnc3[nH]ccc3n12` [compound 26, N-((1S,3R,4S)-3-ethyl-4-(6H-pyrrolo[2,3-e][1,2,4]triazolo[4,3-a]pyrazin-1-yl)cyclopentyl)-2-(5-methylisoxazol-3-yloxy)acetamide] was run?
The IC50 was greater than 10 µM.

`CC[C@@H]1C[C@H](NC(=O)CN(C)C(=O)c2ccco2)C[C@@H]1c1nnc2cnc3[nH]ccc3n12` [compound 27, N-(2-((1S,3R,4S)-3-ethyl-4-(6H-pyrrolo[2,3-e][1,2,4]triazolo[4,3-a]pyrazin-1-yl)cyclopentylamino)-2-oxoethyl)-N-methylfuran-2-carboxamide] was tested. Which IC50 did it give?
The IC50 was greater than 10 µM.

How did the IC50 turn out when `CC[C@@H]1C[C@H](NC(=O)CCC2NC(=O)NC2=O)C[C@@H]1c1nnc2cnc3[nH]ccc3n12` (stereo partly drawn) [compound 28, 3-(2,5-dioxoimidazolidin-4-yl)-N-((1S,3R,4S)-3-ethyl-4-(6H-pyrrolo[2,3-e][1,2,4]triazolo[4,3-a]pyrazin-1-yl)cyclopentyl)propanamide] was run?
The IC50 was 1 to 10 µM.

For `CC[C@@H]1C[C@H](NC(=O)c2noc3c2CC(C)CC3)C[C@@H]1c1nnc2cnc3[nH]ccc3n12` (stereo partly drawn) [compound 29, N-((1S,3R,4S)-3-ethyl-4-(6H-pyrrolo[2,3-e][1,2,4]triazolo[4,3-a]pyrazin-1-yl)cyclopentyl)-5-methyl-4,5,6,7-tetrahydrobenzo[d]isoxazole-3-carboxamide], which IC50 is on record?
Its IC50 is 1 to 10 µM.
